From article PMC12058161, “The plant matrix of Artemisia annua L. for the treatment of malaria: Pharmacodynamic and pharmacokinetic studies” (PLOS One, 2025)
“And” between values parts separate entries of the source, which are not always exact repeats. Equal entries are not always repeated.

Experiments:
[1] = Pharmacokinetic study in rats after oral administration (UHPLC-ESI-MS/MS of plasma); settings: for half-life: male, Sprague Dawley, rat, in vivo, po
Method: Blood samples were centrifuged at 3500 rpm for 5 min at 4°C. All plasma samples were then stored at -80°C until analysis.
All samples were stored in a refrigerator at -80°C and thawed at room temperature before processing. A 50 μL aliquot of plasma was added with 5 μL of the standard solution (or acetonitrile) and 100 μL of internal standard solution in turn, vortexed and mixed, then sonicated for 3 min, centrifuged at 14000 rpm for 10 min at low temperature. The supernatant was transferred to an autosampler vial and analyzed by UHPLC-ESI-MS/MS.
The mobile phase consisted of 0.1% formic acid solution (A) and acetonitrile (B).
The ESI ionization source was used and detected in MRM mode.
All data were presented as mean ± SD. Pharmacokinetic parameters including half-life (t1/2), maximum plasma time (Tmax) and concentration (Cmax), area under concentration-time curve (AUC0-t and AUC0-∞), clearance (CL), steady-state volume of distribution (Vz), and mean residence time (MRT) were analyzed by non-compartmental method using DAS Version 2.0 (Chinese Pharmacological Society, Beijing, China). […] The data were analyzed by Student’s t-test for two groups and one-way analysis of variance for multiple groups; p < 0.05 was considered statistically significant.

[2] = system: Plasmodium berghei (P. berghei); assay: Peters' four-day inhibition method, P. berghei murine malaria model; format: in vivo, ICR mice; settings: individual mice
Method: In vivo evaluation of antimalarial activity was performed using the classical Peters’ four-day inhibition method. A murine malaria model was constructed by intraperitoneal injection of 5.00 × 10^7 Plasmodium yoelii (P. yoelii)- or Plasmodium berghei (P. berghei)-infected erythrocytes. […] Mice were gavaged once 4 hours after infection with medicated soybean oil or the test drug (gavage standard was 0.20 mL/10 g), and the drug was administered orally for 4 consecutive days. Four hours after the last dose, blood was collected from the tail tip of the mice to make a thin blood smear. The smear was air-dried, fixed in methanol, stained with Giemsa for 30 minutes, then rinsed with distilled water, air-dried at room temperature, and visualized for malaria infection under a microscope (OLYMPUS BX43) at 100x oil immersion. The inhibition ratio (%) for each group was calculated using the following equations:
Inhibitionratio(%)=(infectionratiocontrolgroup−infectionratiotreatmentgroup)/infectionratiocontrolgroup×100

Caco-2 cell monolayers = assay: Bidirectional transport of ART across Caco-2 cell monolayers (LC-MS/MS); format: in vitro ADME, human; settings: for transhipment of ART, AP-BL / transhipment of ART, Transepithelial transport in BL-to-AP: single replicate; for ART concentration per group, summary block: summary used for cumulative amount
Source text: (§1) The human epithelial cell line Caco-2 serves as a widely recognized model for the intestinal epithelial barrier, frequently utilized in the assessment of drug absorption and transport mechanisms. In this study, we evaluated drug absorption and distribution in vitro with the help of the Caco-2 cell model. Caco-2 cells were purchased from the Chinese Academy of Medical Sciences (Beijing, China, Resource No. 3111C0001CCC000100). The cells were resuscitated and inserted into culture flasks. Caco-2 cells were passaged with DMEM high glucose medium containing 10% (V/V) FBS, 1% (V/V) non-essential amino acid solution and 100 U/mL penicillin-streptomycin double antibiotic solution, and cultured at 37°C in a 5% CO2 incubator. […] The integrity of the cell monolayer was checked by measuring the transmembrane electrical resistance (TEER) of the monolayer cells with a Millicell-ERS electrode (Millipore Corp., Billerica, MA, USA). Caco-2 cells were used for transport experiments 17-21 days after inoculation. Besides, only monolayers with TEER values above 400 Ω/cm^2 were used in the study. […] To prepare drug-treated Caco-2 cell monolayers, Caco-2 cells cultured in Transwell® inserts were aseptically treated on day 21 with 10 μM of […] and nACTs. […] The excitation wavelength was set at 485 nm, and the emission wavelength at 535 nm. […] The efflux ratio was calculated using the Papp (BL-AP) to Papp (AP-BL) ratio. […] The solvent gradient was 65%B-95%B for 0-5 min; 95%B for 5-6 min; and 35%B for 6-9 min.

[3] = as above; format: in vitro ADME, human; settings: human, Caco-2 monolayer, n = 3
Source text: as §1

P-glycoprotein (P-gp) = biological target: T1, P-glycoprotein (P-gp) (Homo sapiens, UniProt P08183); assay: Rhodamine 123 (P-gp substrate) transport across drug-treated Caco-2 cell monolayers; format: cell-based; settings: co-incubated with R123, 10 μM, Caco-2 monolayer, Fig 6
T1 construct: The transport of R123 in normal Caco-2 cell monolayers or drug-treated Caco-2 cell monolayers was further studied; host or cells: Caco-2
Source text: The human epithelial cell line Caco-2 serves as a widely recognized model for the intestinal epithelial barrier, frequently utilized in the assessment of drug absorption and transport mechanisms. In this study, we evaluated drug absorption and distribution in vitro with the help of the Caco-2 cell model. Caco-2 cells were purchased from the Chinese Academy of Medical Sciences (Beijing, China, Resource No. 3111C0001CCC000100). The cells were resuscitated and inserted into culture flasks. Caco-2 cells were passaged with DMEM high glucose medium containing 10% (V/V) FBS, 1% (V/V) non-essential amino acid solution and 100 U/mL penicillin-streptomycin double antibiotic solution, and cultured at 37°C in a 5% CO2 incubator. […] The integrity of the cell monolayer was checked by measuring the transmembrane electrical resistance (TEER) of the monolayer cells with a Millicell-ERS electrode (Millipore Corp., Billerica, MA, USA). Caco-2 cells were used for transport experiments 17–21 days after inoculation. Besides, only monolayers with TEER values above 400 Ω/cm^2 were used in the study.
The transport of R123 in normal Caco-2 cell monolayers or drug-treated Caco-2 cell monolayers was further studied. […] The transport buffer containing 5 μM of R123 was added on either the AP or the BL side of the inserts, as described above. […] The concentrations of R123 were immediately analyzed by SpectraMax iD3. The excitation wavelength was set at 485 nm, and the emission wavelength at 535 nm. Papp values across the cell monolayers were calculated according to the equation: Papp = dQ/dt × 1/(A × C0), where dQ/dt represents the rate of drug transport. […] The efflux ratio was calculated using the Papp (BL-AP) to Papp (AP-BL) ratio.

[4] = sample code A: apical(AP), 30 min
[5] = sample code A: apical(AP), 60 min
[6] = sample code A: apical(AP), 90 min
[7] = sample code A: apical(AP), 120 min
[8] = sample code A: apical(AP), 150 min
[9] = sample code A: apical(AP), 180 min
[10] = sample code B: basolateral (BL), 30 min
[11] = sample code B: basolateral (BL), 60 min
[12] = sample code B: basolateral (BL), 90 min
[13] = sample code B: basolateral (BL), 120 min
[14] = sample code B: basolateral (BL), 150 min
[15] = sample code B: basolateral (BL), 180 min
[16] = Caco-2, ART given as nACTs equivalent to 10 μM ART

T1 sequence (P08183 whole entry): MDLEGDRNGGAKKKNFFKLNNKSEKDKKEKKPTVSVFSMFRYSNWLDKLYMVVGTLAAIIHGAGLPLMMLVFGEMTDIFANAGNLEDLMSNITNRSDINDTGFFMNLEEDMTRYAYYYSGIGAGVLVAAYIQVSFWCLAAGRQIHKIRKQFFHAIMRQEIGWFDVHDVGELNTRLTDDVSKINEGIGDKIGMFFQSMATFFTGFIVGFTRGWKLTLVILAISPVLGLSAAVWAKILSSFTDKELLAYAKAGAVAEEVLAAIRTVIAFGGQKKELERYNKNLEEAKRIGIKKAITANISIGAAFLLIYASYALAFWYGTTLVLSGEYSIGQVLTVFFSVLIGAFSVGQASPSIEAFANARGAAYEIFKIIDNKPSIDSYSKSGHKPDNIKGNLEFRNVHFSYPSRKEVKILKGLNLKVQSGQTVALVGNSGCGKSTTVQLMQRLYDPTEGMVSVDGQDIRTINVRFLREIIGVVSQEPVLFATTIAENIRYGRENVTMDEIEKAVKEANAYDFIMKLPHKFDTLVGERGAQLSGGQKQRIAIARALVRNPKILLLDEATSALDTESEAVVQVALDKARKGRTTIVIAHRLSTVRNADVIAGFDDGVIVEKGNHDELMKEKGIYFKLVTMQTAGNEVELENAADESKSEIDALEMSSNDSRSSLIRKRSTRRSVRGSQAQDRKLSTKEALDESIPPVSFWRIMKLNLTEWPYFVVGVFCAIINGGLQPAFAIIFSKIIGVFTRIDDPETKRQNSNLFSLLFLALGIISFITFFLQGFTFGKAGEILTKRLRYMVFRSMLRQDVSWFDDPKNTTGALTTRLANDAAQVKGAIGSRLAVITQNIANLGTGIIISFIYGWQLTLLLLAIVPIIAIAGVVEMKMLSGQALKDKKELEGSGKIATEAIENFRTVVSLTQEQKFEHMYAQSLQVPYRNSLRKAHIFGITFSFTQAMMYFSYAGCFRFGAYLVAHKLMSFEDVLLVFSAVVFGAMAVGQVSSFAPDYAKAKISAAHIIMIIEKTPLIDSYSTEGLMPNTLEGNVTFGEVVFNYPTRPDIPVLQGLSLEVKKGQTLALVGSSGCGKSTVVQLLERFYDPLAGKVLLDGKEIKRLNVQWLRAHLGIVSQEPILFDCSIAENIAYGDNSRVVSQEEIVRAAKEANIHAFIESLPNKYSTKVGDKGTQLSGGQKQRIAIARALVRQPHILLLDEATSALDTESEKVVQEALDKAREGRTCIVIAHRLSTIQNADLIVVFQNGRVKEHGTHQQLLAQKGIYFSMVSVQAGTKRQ

C[C@@H]1CC[C@H]2[C@@H](C)C(=O)O[C@@H]3O[C@@]4(C)CC[C@@H]1[C@]32OO4 [ART, Artemisinin, reference compound] showed a half-life ([1]; 100 mg/kg, t1/2, rat plasma, ART after gavage of pure ART (PU) 100 mg/kg, n = 6) of 1.1 ± 0.335 h, a half-life ([1]; 100 mg/kg, t1/2z, pure artemisinin, rat plasma, DAS 2.0, Mean of 6 rats) of 1.1 h and a half-life ([1]; 352 mg/kg, t1/2, rat plasma, component after gavage of nACTs 352 mg/kg, n = 6) of 1.76 ± 0.938 h. The “Cz(尾点回归值)” value ([1]; pure artemisinin, rat plasma, DAS 2.0, individual rats No1-No6) was 14.237 mg/L, the parasitemia% ([2]; 5.68 mg/kg) was 73.4143% and 71.7174% and 72.6074% and 72.7168% and 72.6183% and the parasitemia% ([2]; 11.368 mg/kg) was 41.4175% and 45.3752% and 36.8615% and 43.5062% and 35.724%. For the same compound, the parasitemia% ([2]; 22.736 mg/kg) was 2.697% and 7.338% and 4.202% and 2.082% and 5.536%, the “transhipment of ART, AP-BL” value (Caco-2 cell monolayers; 30 min) was 3.69 nmol and 3.84 nmol and 3.71 nmol and the “transhipment of ART, AP-BL” value (Caco-2 cell monolayers; 60 min) was 5.02 nmol and 5.27 nmol and 5.14 nmol. For the same compound, the “transhipment of ART, AP-BL” value (Caco-2 cell monolayers; 90 min) was 7.24 nmol and 7.11 nmol and 7.33 nmol, the “transhipment of ART, AP-BL” value (Caco-2 cell monolayers; 120 min) was 8.97 nmol and 9.16 nmol and 9.09 nmol and the “transhipment of ART, AP-BL” value (Caco-2 cell monolayers; 150 min) was 10.67 nmol and 10.60 nmol and 10.62 nmol. The “transhipment of ART, AP-BL” value (Caco-2 cell monolayers; 180 min) was 11.97 nmol (2×) and 11.99 nmol, the “transhipment of ART, Transepithelial transport in BL-to-AP” value (from here on “transhipment of ART … in BL-to-AP”) (Caco-2 cell monolayers; 30 min) was 28.49 nmol and 28.67 nmol and 28.4 nmol and the “transhipment of ART … in BL-to-AP” value (Caco-2 cell monolayers; 60 min) was 55.39 nmol and 55.5 nmol and 55.82 nmol. The “transhipment of ART … in BL-to-AP” value (Caco-2 cell monolayers; 90 min) was 69.96 nmol and 69.87 nmol and 69.99 nmol, the “transhipment of ART … in BL-to-AP” value (Caco-2 cell monolayers; 120 min) was 90.64 nmol and 90.48 nmol and 90.67 nmol and the “transhipment of ART … in BL-to-AP” value (Caco-2 cell monolayers; 150 min) was 106.51 nmol and 106.61 nmol and 106.74 nmol. The “transhipment of ART … in BL-to-AP” value (Caco-2 cell monolayers; 180 min) was 124.37 nmol and 124.58 nmol and 124.56 nmol, the “ART original concentration, single replicate” value (Caco-2 cell monolayers; [4]) was 786.91 ng/mL and 1910.44 ng/mL and 2313.90 ng/mL and the “ART original concentration, column mean” value (Caco-2 cell monolayers; [4]) was 2112.17 ng/mL. For the same compound, the “ART concentration per group, summary block” value (from here on “ART concentration per group”) (Caco-2 cell monolayers; [4]) was 2112.17 ng/mL, the “ART original concentration, single replicate” value (Caco-2 cell monolayers; [5]) was 2149.07 ng/mL and 2049.02 ng/mL and 3232.78 ng/mL and the “ART original concentration, column mean” value (Caco-2 cell monolayers; [5]) was 2640.90 ng/mL. The “ART concentration per group” value (Caco-2 cell monolayers; [5]) was 2476.96 ng/mL, the “ART original concentration, single replicate” value (Caco-2 cell monolayers; [6]) was 2915.94 ng/mL and 2813.25 ng/mL and 3472.39 ng/mL and the “ART original concentration, column mean” value (Caco-2 cell monolayers; [6]) was 3142.82 ng/mL. The “ART concentration per group” value (Caco-2 cell monolayers; [6]) was 3067.20 ng/mL, the “ART original concentration, single replicate” value (Caco-2 cell monolayers; [7]) was 3594.17 ng/mL and 3318.58 ng/mL and 3006.12 ng/mL and the “ART original concentration, column mean” value (Caco-2 cell monolayers; [7]) was 3162.35 ng/mL. For the same compound, the “ART concentration per group” value (Caco-2 cell monolayers; [7]) was 3306.29 ng/mL, the “ART original concentration, single replicate” value (Caco-2 cell monolayers; [8]) was 3213.69 ng/mL and 2917.70 ng/mL and 3363.12 ng/mL and the “ART original concentration, column mean” value (Caco-2 cell monolayers; [8]) was 3140.41 ng/mL. The “ART concentration per group” value (Caco-2 cell monolayers; [8]) was 3164.84 ng/mL, the “ART original concentration, single replicate” value (Caco-2 cell monolayers; [9]) was 2674.58 ng/mL and 2920.77 ng/mL and 2532.18 ng/mL and the “ART original concentration, column mean” value (Caco-2 cell monolayers; [9]) was 2726.47 ng/mL. The “ART concentration per group” value (Caco-2 cell monolayers; [9]) was 2709.18 ng/mL, the “ART original concentration, single replicate” value (Caco-2 cell monolayers; [10]) was 5260.58 ng/mL and 5169.96 ng/mL and 5652.08 ng/mL and the “ART concentration per group” value (Caco-2 cell monolayers; [10]) was 5360.87 ng/mL. The “ART original concentration, single replicate” value (Caco-2 cell monolayers; [11]) was 8719.34 ng/mL and 7267.89 ng/mL and 12129.77 ng/mL, the “ART original concentration, column mean” value (Caco-2 cell monolayers; [11]) was 9698.83 ng/mL and the “ART concentration per group” value (Caco-2 cell monolayers; [11]) was 9372.33 ng/mL. The “ART original concentration, single replicate” value (Caco-2 cell monolayers; [12]) was 9503.98 ng/mL and 6910.68 ng/mL and 13549.62 ng/mL, the “ART original concentration, column mean” value (Caco-2 cell monolayers; [12]) was 10230.15 ng/mL and the “ART concentration per group” value (Caco-2 cell monolayers; [12]) was 9988.09 ng/mL. For the same compound, the “ART original concentration, single replicate” value (Caco-2 cell monolayers; [13]) was 10562.24 ng/mL and 7482.04 ng/mL and 15676.89 ng/mL, the “ART original concentration, column mean” value (Caco-2 cell monolayers; [13]) was 11579.46 ng/mL and the “ART concentration per group” value (Caco-2 cell monolayers; [13]) was 11240.39 ng/mL. The “ART original concentration, single replicate” value (Caco-2 cell monolayers; [14]) was 9970.47 ng/mL and 7130.75 ng/mL and 15441.45 ng/mL, the “ART original concentration, column mean” value (Caco-2 cell monolayers; [14]) was 11286.10 ng/mL and the “ART concentration per group” value (Caco-2 cell monolayers; [14]) was 10847.56 ng/mL. The “ART original concentration, single replicate” value (Caco-2 cell monolayers; [15]) was 7047.15 ng/mL and 14960.70 ng/mL and 8594.06 ng/mL, the “ART original concentration, column mean” value (Caco-2 cell monolayers; [15]) was 11777.38 ng/mL and the “ART concentration per group” value (Caco-2 cell monolayers; [15]) was 10200.64 ng/mL. The Papp A→B at 180 min, 10 μM ([3]; Caco-2, 10 μM ART alone (PU)) was 7.49 ± 0.35 ×10⁻⁶ cm/s, the Papp B→A at 180 min, 10 μM ([3]; Caco-2, 10 μM ART alone (PU)) was 82.3 ± 2.1 ×10⁻⁶ cm/s and the Papp A→B at 180 min, 10 μM [3, 16] was 8.42 ± 0.37 ×10⁻⁶ cm/s. The Papp B→A at 180 min, 10 μM [3, 16] was 52.7 ± 2.3 ×10⁻⁶ cm/s.

For C[C@@H]1CC[C@H]2[C@@H](C)C(=O)O[C@@H]3O[C@@]4(C)CC[C@@H]1[C@]32O4 [DEART, Deoxyartemisinin], the “reduction of R123 transport from the BL side to the AP side” value (P-glycoprotein (P-gp)) was 22.40%.
